From patent US20100035755A1, “METHOD OF CONTROLLING WEEDS IN A TURF GRASS BY USING SULFONYLUREA COMPOUNDS” (Moghu Research Center Ltd., priority 2008, published 2010)

Experiments:
Zoysia japonica = assay: Actual field condition test of Example 1 (golf course); assay type: in vivo; settings: 100 g ai/ha, twenty days after application
Protocol: (§1) The test chemical of the Example 1 was applied to a turf grass field, in which Digitaria sanguinalis as a representative summer-time poaceae weed and Kyllinga brevifolia as a representative hard-to-control perennial cyperaceae weed are thriving predominantly, to evaluate weed control effect of the compound. The experiment was carried out from May to July, 2008 in the Dae-duk Research Park golf course (Doryong-dong, Yusong-gu, Daejon, South Korea). At the time of the chemical application, Digitaria sanguinalis was at about 4-leaf stage and Kyllinga brevifolia was at growth period.

Kentucky bluegrass = assay: as above; assay type: in vivo, Poa pratensis; settings: 100 g ai/ha, twenty days after application
Protocol: as §1

Digitaria sanguinalis = assay: Weed spectrum, greenhouse pot test; assay type: in vivo; settings: for efficacy (0-100 scale): two weeks after application
Procedure, shortened: (§2)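 Seeds of each species were sown into pots filled with sandy loam and top soil (1:1) and kept in a greenhouse. Test chemical was sprayed immediately after sowing (pre-emergence) or after two weeks' growth to about three-leaf stage (post-emergence). Efficacy was judged visually after two weeks, from 0 (none) to 100.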

Poa annua = assay: Weed spectrum, greenhouse pot test; assay type: in vivo; settings: for efficacy (0-100 scale): two weeks after application
Procedure, shortened: as §2

Kummerowia striata = assay: Weed spectrum, greenhouse pot test; assay type: in vivo; settings: two weeks after application
Procedure, shortened: as §2

Portulaca oleracea = assay: Weed spectrum, greenhouse pot test; assay type: in vivo; settings: two weeks after application
Procedure, shortened: as §2

Veronica officinalis = assay: Weed spectrum, greenhouse pot test; assay type: in vivo; settings: two weeks after application
Procedure, shortened: as §2

cool season turfgrass = assay: Turf grass selectivity, summary for cool season turfgrass; assay type: in vivo; settings: 25 g ai/ha or more
Description: Turf mats of Zoysia grass, bentgrass, Kentucky bluegrass, or perennial rye grass known as cool season turfgrass or western grass were purchased and cut into a piece having 10 cm×20 cm size. Then, each piece was transplanted in a rectangular plastic pot (surface area of 300 cm^2) in which sandy loam and mixed top soil (Boo-Nong Top Soil No. 3, for horticultural use) are filled in 1:1 ratio. After the transplantation, the grasses were cut once a week to maintain the blade height at 0.5-1.0 cm and cultivated for one month in a green house of which temperature was kept at 25˜30° C. for daytime and 15˜25° C. for nighttime, respectively. Then, the ‘test chemical’ of the above Examples 1 and 2 or ‘control chemical’ was applied thereto in an amount of 400, 200, 100, 50, 25, 12, 6, 3 g ai/ha. As a “control chemical”, pyrazolsulfuron ethyl wettable agent (manufactured by Dongbu Fine Chemicals; herein after, referred to as ‘control chemical No. 1’) and flazasulfuron (manufactured by Dongbu HiTek; herein after, referred to as ‘control chemical No. 2’), both sulfonylurea herbicides for a turf grass, were used. Application was carried out by using a track sprayer (R&D Sprayer, USA) equipped with Teejet 8002 nozzle (Spraying Systems Co., USA), and the application amount was adjusted to 2,000 L/ha, which is a typical application amount for a golf course in Korea. […]

Viola arvensis = assay: Actual field condition test of Example 2 (turf grass field); assay type: in vivo; settings: 50 g ai/ha
Protocol: The test chemical of the Example 2 was applied to a turf grass field, in which Viola arvensis as a representative hard-to-control perennial weed is thriving predominantly, to evaluate a weed control effect of the compound. The experiment was carried out from May to June, 2007 in the turf grass field within Korea Research Institute of Bioscience and Biotechnology (52, Ueun-dong, Yusong-gu, Daejon, South Korea). Fourteen days after the chemical application, the turf grass was cut once.

CCOC(=O)c1cnn(C)c1S(=O)(=O)NC(=O)Nc1nc(OC)cc(OC)n1 [Control chemical No. 1, Pyrazosulfuron ethyl, reference compound]
phytotoxicity in actual field condition (Zoysia japonica): 0 | phytotoxicity in actual field condition (Kentucky bluegrass): 0 | efficacy (0-100 scale) (Digitaria sanguinalis; Post-emergence, 12 g ai/ha): 0 | efficacy (0-100 scale) (Digitaria sanguinalis; Post-emergence, 25 g ai/ha): 0 | efficacy (0-100 scale) (Digitaria sanguinalis; Post-emergence, 50 g ai/ha): 0 | efficacy (0-100 scale) (Digitaria sanguinalis; Post-emergence, 100 g ai/ha): 10 | efficacy (0-100 scale) (Digitaria sanguinalis; Pre-emergence, 12 g ai/ha): 0 | efficacy (0-100 scale) (Digitaria sanguinalis; Pre-emergence, 25 g ai/ha): 10 | efficacy (0-100 scale) (Digitaria sanguinalis; Pre-emergence, 50 g ai/ha): 30 | efficacy (0-100 scale) (Digitaria sanguinalis; Pre-emergence, 100 g ai/ha): 50 | efficacy (0-100 scale) (Poa annua; Post-emergence, 12 g ai/ha): 0 | efficacy (0-100 scale) (Poa annua; Post-emergence, 25 g ai/ha): 0 | efficacy (0-100 scale) (Poa annua; Post-emergence, 50 g ai/ha): 0 | efficacy (0-100 scale) (Poa annua; Post-emergence, 100 g ai/ha): 10 | efficacy (0-100 scale) (Poa annua; Pre-emergence, 12 g ai/ha): 0 | efficacy (0-100 scale) (Poa annua; Pre-emergence, 25 g ai/ha): 10 | efficacy (0-100 scale) (Poa annua; Pre-emergence, 50 g ai/ha): 20 | efficacy (0-100 scale) (Poa annua; Pre-emergence, 100 g ai/ha): 20 | efficacy (0-100 scale) (Kummerowia striata; Post-emergence, 12 g ai/ha): 0 | efficacy (0-100 scale) (Kummerowia striata; Post-emergence, 25 g ai/ha): 30 | efficacy (0-100 scale) (Kummerowia striata; Post-emergence, 50 g ai/ha): 40 | efficacy (0-100 scale) (Kummerowia striata; Post-emergence, 100 g ai/ha): 50 | efficacy (0-100 scale) (Kummerowia striata; Pre-emergence, 12 g ai/ha): 30 | efficacy (0-100 scale) (Kummerowia striata; Pre-emergence, 25 g ai/ha): 50 | efficacy (0-100 scale) (Kummerowia striata; Pre-emergence, 50 g ai/ha): 50 | efficacy (0-100 scale) (Kummerowia striata; Pre-emergence, 100 g ai/ha): 70 | efficacy (0-100 scale) (Portulaca oleracea; Post-emergence, 12 g ai/ha): 20 | efficacy (0-100 scale) (Portulaca oleracea; Post-emergence, 25 g ai/ha): 40 | efficacy (0-100 scale) (Portulaca oleracea; Post-emergence, 50 g ai/ha): 60 | efficacy (0-100 scale) (Portulaca oleracea; Post-emergence, 100 g ai/ha): 80 | efficacy (0-100 scale) (Portulaca oleracea; Pre-emergence, 12 g ai/ha): 20 | efficacy (0-100 scale) (Portulaca oleracea; Pre-emergence, 25 g ai/ha): 30 | efficacy (0-100 scale) (Portulaca oleracea; Pre-emergence, 50 g ai/ha): 70 | efficacy (0-100 scale) (Portulaca oleracea; Pre-emergence, 100 g ai/ha): 100 | efficacy (0-100 scale) (Veronica officinalis; Post-emergence, 12 g ai/ha): 10 | efficacy (0-100 scale) (Veronica officinalis; Post-emergence, 25 g ai/ha): 20 | efficacy (0-100 scale) (Veronica officinalis; Post-emergence, 50 g ai/ha): 30 | efficacy (0-100 scale) (Veronica officinalis; Post-emergence, 100 g ai/ha): 30 | efficacy (0-100 scale) (Veronica officinalis; Pre-emergence, 12 g ai/ha): 0 | efficacy (0-100 scale) (Veronica officinalis; Pre-emergence, 25 g ai/ha): 20 | efficacy (0-100 scale) (Veronica officinalis; Pre-emergence, 50 g ai/ha): 30 | efficacy (0-100 scale) (Veronica officinalis; Pre-emergence, 100 g ai/ha): 40

COc1nc(C)nc(NC(=O)NS(=O)(=O)c2cscc2C2(CF)OCCO2)n1 [Example 2, 3-(2-fluoromethyl-1,3-dioxalan-2-yl)-N-[(4-methoxy-6-methyltriazin-2-yl)aminocarbonyl]4-thiophene sulfonamide]
phytotoxicity to cool season turfgrass (cool season turfgrass): completely withered | Effect on Viola arvensis (Viola arvensis; After 7 days): 20 | Effect on Viola arvensis (Viola arvensis; After 14 days): 50 | weed controlled (Digitaria sanguinalis; 50 to 100 g/ha): at least 90% | efficacy (0-100 scale) (Digitaria sanguinalis; Post-emergence, 12 g ai/ha): 40 | efficacy (0-100 scale) (Digitaria sanguinalis; Post-emergence, 25 g ai/ha): 70 | efficacy (0-100 scale) (Digitaria sanguinalis; Post-emergence, 50 g ai/ha): 90 | efficacy (0-100 scale) (Digitaria sanguinalis; Post-emergence, 100 g ai/ha): 100 | efficacy (0-100 scale) (Digitaria sanguinalis; Pre-emergence, 12 g ai/ha): 95 | efficacy (0-100 scale) (Digitaria sanguinalis; Pre-emergence, 25 g ai/ha): 95 | efficacy (0-100 scale) (Digitaria sanguinalis; Pre-emergence, 50 g ai/ha): 100 | efficacy (0-100 scale) (Digitaria sanguinalis; Pre-emergence, 100 g ai/ha): 100 | weed controlled (Poa annua; 50 to 100 g/ha): at least 90% | efficacy (0-100 scale) (Poa annua; Post-emergence, 12 g ai/ha): 60 | efficacy (0-100 scale) (Poa annua; Post-emergence, 25 g ai/ha): 80 | efficacy (0-100 scale) (Poa annua; Post-emergence, 50 g ai/ha): 90 | efficacy (0-100 scale) (Poa annua; Post-emergence, 100 g ai/ha): 95 | efficacy (0-100 scale) (Poa annua; Pre-emergence, 12 g ai/ha): 50 | efficacy (0-100 scale) (Poa annua; Pre-emergence, 25 g ai/ha): 60 | efficacy (0-100 scale) (Poa annua; Pre-emergence, 50 g ai/ha): 90 | efficacy (0-100 scale) (Poa annua; Pre-emergence, 100 g ai/ha): 90 | efficacy (0-100 scale) (Kummerowia striata; Post-emergence, 12 g ai/ha): 70 | efficacy (0-100 scale) (Kummerowia striata; Post-emergence, 25 g ai/ha): 70 | efficacy (0-100 scale) (Kummerowia striata; Post-emergence, 50 g ai/ha): 100 | efficacy (0-100 scale) (Kummerowia striata; Post-emergence, 100 g ai/ha): 100 | efficacy (0-100 scale) (Kummerowia striata; Pre-emergence, 12 g ai/ha): 70 | efficacy (0-100 scale) (Kummerowia striata; Pre-emergence, 25 g ai/ha): 90 | efficacy (0-100 scale) (Kummerowia striata; Pre-emergence, 50 g ai/ha): 90 | efficacy (0-100 scale) (Kummerowia striata; Pre-emergence, 100 g ai/ha): 100 | efficacy (0-100 scale) (Portulaca oleracea; Post-emergence, 12 g ai/ha): 70 | efficacy (0-100 scale) (Portulaca oleracea; Post-emergence, 25 g ai/ha): 90 | efficacy (0-100 scale) (Portulaca oleracea; Post-emergence, 50 g ai/ha): 100 | efficacy (0-100 scale) (Portulaca oleracea; Post-emergence, 100 g ai/ha): 100 | efficacy (0-100 scale) (Portulaca oleracea; Pre-emergence, 12 g ai/ha): 90 | efficacy (0-100 scale) (Portulaca oleracea; Pre-emergence, 25 g ai/ha): 90 | efficacy (0-100 scale) (Portulaca oleracea; Pre-emergence, 50 g ai/ha): 100 | efficacy (0-100 scale) (Portulaca oleracea; Pre-emergence, 100 g ai/ha): 100 | efficacy (0-100 scale) (Veronica officinalis; Post-emergence, 12 g ai/ha): 20 | efficacy (0-100 scale) (Veronica officinalis; Post-emergence, 25 g ai/ha): 20 | efficacy (0-100 scale) (Veronica officinalis; Post-emergence, 50 g ai/ha): 20 | efficacy (0-100 scale) (Veronica officinalis; Post-emergence, 100 g ai/ha): 20 | efficacy (0-100 scale) (Veronica officinalis; Pre-emergence, 12 g ai/ha): 30 | efficacy (0-100 scale) (Veronica officinalis; Pre-emergence, 25 g ai/ha): 30 | efficacy (0-100 scale) (Veronica officinalis; Pre-emergence, 50 g ai/ha): 40 | efficacy (0-100 scale) (Veronica officinalis; Pre-emergence, 100 g ai/ha): 50
